According to ChEMBL document CHEMBL2321779, “Aminophenoxazinones as inhibitors of indoleamine 2,3-dioxygenase (IDO). Synthesis of exfoliazone and chandrananimycin A” (J Med Chem, 2013):
pIC50, pKi: −log10 of the molar value.

Assays:
[1] = molecular target: T1, Indoleamine 2,3-dioxygenase 1 (Homo sapiens, UniProt P14902); test: Inhibition of human recombinant N-terminus 6X-histidine-tagged indoleamine 2,3-dioxygenase expressed in Escherichia coli assessed as inhibition of L-tryptophan to N-formylkynurenine formation measured as residual enzyme activity at 1 uM incubated for 10 mins prior to substrate addition measured …; values are per cent of control
Target sequence in this assay (P14902 whole entry, looked up): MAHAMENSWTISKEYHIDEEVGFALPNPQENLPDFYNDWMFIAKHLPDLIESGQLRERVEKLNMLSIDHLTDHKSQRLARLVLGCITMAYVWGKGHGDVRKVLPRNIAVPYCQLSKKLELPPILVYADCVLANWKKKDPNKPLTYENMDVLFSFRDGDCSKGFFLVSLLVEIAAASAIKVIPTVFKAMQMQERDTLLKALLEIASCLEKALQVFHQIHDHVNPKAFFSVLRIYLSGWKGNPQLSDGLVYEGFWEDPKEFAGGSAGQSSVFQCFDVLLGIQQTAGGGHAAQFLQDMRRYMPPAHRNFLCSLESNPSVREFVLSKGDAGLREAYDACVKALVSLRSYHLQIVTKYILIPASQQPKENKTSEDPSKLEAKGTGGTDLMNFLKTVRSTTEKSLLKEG

[2] = molecular target: T1, Indoleamine 2,3-dioxygenase 1; test: Inhibition of human recombinant N-terminus 6X-histidine-tagged indoleamine 2,3-dioxygenase expressed in Escherichia coli assessed as inhibition of L-tryptophan to N-formylkynurenine formation measured as residual enzyme activity at 0.1 uM incubated for 10 mins prior to substrate addition measured …
Target sequence in this assay (P14902 whole entry, looked up): as above

[3] = molecular target: T1, Indoleamine 2,3-dioxygenase 1; test: Inhibition of human recombinant N-terminus 6X-histidine-tagged indoleamine 2,3-dioxygenase expressed in Escherichia coli assessed as inhibition of L-tryptophan to N-formylkynurenine formation measured as residual enzyme activity at 10 uM incubated for 10 mins prior to substrate addition measured …; values are per cent of control
Target sequence in this assay (P14902 whole entry, looked up): as above

[4] = molecular target: T1, Indoleamine 2,3-dioxygenase 1; test: Inhibition of human recombinant N-terminus 6X-histidine-tagged indoleamine 2,3-dioxygenase expressed in Escherichia coli assessed as inhibition of L-tryptophan to N-formylkynurenine formation measured as residual enzyme activity incubated for 10 mins prior to substrate addition measured after 30 mins by UV-vis spectrophotometric analysis relative to DMSO-treated control
Target sequence in this assay (P14902 whole entry): as the sequence (P14902 whole entry, looked up) above

Row | SMILES | residual activity [1] | residual activity [2] | residual activity [3] | pIC50 [4] | pKi [4]
1 | COC(=O)c1c2nc3cc(CO)ccc3oc-2cc(=O)c1N | 75% | 95% | 34% | – | –
2 | Nc1cc2nc3cc(CO)ccc3oc-2cc1=O | 87% | 84% | 80% | – | –
3 | Cc1c2nc3c(C)cccc3oc-2cc(=O)c1N | 100% | 98% | 95% | – | –
4 | Cc1ccc2oc3cc(=O)c(N)cc-3nc2c1 | 100% | 99% | 91% | – | –
5 | Nc1c(C(=O)O)c2nc3c(C(=O)O)cccc3oc-2cc1=O [CINNABARINIC ACID] | 23% | 71% | 11% | 6.34 | 6.49
6 | COC(=O)c1c2nc3c(C(=O)OC)cccc3oc-2cc(=O)c1N | 60% | 94% | 30% | – | –
7 | Nc1cc2nc3ccccc3oc-2cc1=O | 94% | 82% | 74% | – | –
8 | CC(=O)Nc1cc2nc3cc(CO)ccc3oc-2cc1=O | 82% | 85% | 74% | – | –
9 | Nc1cc2nc3c(O)cccc3oc-2cc1=O | 100% | 100% | 97% | – | –
10 | COC(=O)c1c2nc3c(C(=O)OC)ccc(C)c3oc-2c(C)c(=O)c1N | 29% | 66% | 24% | – | –
11 | CC(=O)Nc1cc2nc3c(O)cccc3oc-2cc1=O | 99% | 100% | 92% | – | –
